Measured values taken from PMC10419975, “A Novel Betulinic Acid Analogue: Synthesis, Solubility, Antitumor Activity and Pharmacokinetic Study in Rats” (Molecules, 2023).
≈ marks a conversion by molar mass, not a printed value. Where two headings read alike, the source gives them in different places.

Columns and labels:
[1] = Pharmacokinetics of BE after i.g. dosing (previous study); assay type: in vivo, rat; conditions: BE i.g. 500 mg/kg vs SBE i.g. 200 mg/kg
[2] = parameters: method as in PMID 24095874; conditions: i.g. dose of 500 mg/kg; cited from earlier work
[3] = Equilibrium solubility in phosphate buffer at different pH; assay type: physicochemical; conditions: 20 °C, aqueous buffer, thermodynamic from solid
Procedure: (§1) The solubility was recorded at 20 °C in the present study. The solubility under equilibrium conditions was determined using the saturation shake-flask method with minor modifications. Briefly, an excess amount of SBE was added slowly to 1 mL of different solvents including methanol, ethanol, ethyl acetate, n-butanol, n-octanol, acetonitrile, petroleum ether as well as water. The mixture was then in crimp-sealed vials and was stirred vigorously at 20 °C for about 48 h. After that, the mixture was left to stand for an additional 24 h to reach equilibration, and then followed by centrifuging at 13,000 rpm for at least 10 min. 50 µL of the supernatant was transferred into a new tube, and evaporated to dryness under a slow nitrogen stream. The residue was then stored at −20 °C for further use or reconstituted in 1 mL of methanol. For the aqueous solution, 500 µL of the supernatant was transferred to the new tube, and the residue was reconstituted in 100 µL of methanol after dryness. After being centrifuged at 13,000 rpm for 10 min, a 20 μL aliquot was injected into the HPLC systems.
(§2) Equilibrium solubility and apparent oil-water partition coefficient of SBE in pH 5.0, 6.0, 6.5, 7.0, 7.4 and 8.0 phosphate buffer were also determined. Equilibrium solubility was determined by the method described above. The apparent oil-water partition coefficient (P) was calculated through the mass concentration ratio of the oil phase and water phase after balancing SBE distribution using the following equations: P = C1V1/(C0V0 − C1V1), where C0 and C1 are the initial and final concentrations of SBE in n-octanol before and after equilibration, respectively; V0 is the volume of n-octanol (water-saturated), V1 is the final oil volume after equilibration.

[4] = Apparent oil/water partition coefficient (water-saturated n-octanol vs phosphate buffer); assay type: physicochemical; conditions: for logP: water-saturated n-octanol/phosphate buffer
Procedure: as §2, with “Equilibrium” for “Equilibrium solubility and apparent oil-water partition coefficient of SBE in pH 5.0, 6.0, 6.5, 7.0, 7.4 and 8.0 phosphate buffer were also determined. Equilibrium”

[5] = test system: Lewis lung carcinoma (LLC) tumor; assay: Lewis lung carcinoma (LLC) subcutaneous xenograft growth model; assay type: in vivo, C57BL/6J mice; conditions: 0.4 mmol/kg i.p. every other day; for tumor growth inhibition rate (IR) / effect on the body weight of the mice / mean tumor volume: 18 days; for effect on the body weight of the mice: vs vehicle control; for mean tumor volume: placebo 3522.72 ± 2446.63 mm^3; for tumor weight reduced by: day 18, vs vehicle control; for mean tumor weight: day 18, vehicle control 2.86 ± 1.16 g
Procedure: The antitumor activities in vivo assay were performed as described previously with minor modifications. C57BL/6J mice (20 ± 2 g) for the xenograft animal model were purchased from the Laboratory Animal Center of Jilin University (Jilin, China). A formulation of SBE (48 mg/mL) or BA (40 mg/mL) was prepared by mixing SBE or BA with ethanol/tween 80/normal saline (v/v/v = 1/1/18). Each of the mice was inoculated subcutaneously on the back with about 1 × 10^6 Lewis lung carcinoma (LLC) tumor cells (purchased from Nanjing KeyGen Biotech. Inc., China) to obtain the xenograft animal model. Then the mice were divided into three experimental groups (n = 4) randomly on the next day after implantation. BA (200 mg/kg, i.e., 0.4 mmol/kg), SBE (240 mg/kg, i.e., 0.4 mmol/kg) or placebo was injected intraperitoneally (i.p.) every other day. The changes in tumor length, width and body weight were also observed and recorded every other day. Xenograft tumor volume (TV) and growth inhibition rate (IR) were calculated as the following equation [25]:TV = 0.5 × length × width^2; IR = (Vcontrol − Vtreat)/Vcontrol × 100%.
Mice were continually observed for 18 days, and then sacrificed on day 18 via euthanasia. The implanted tumors then were excised and weighed for subsequent analysis. All the animal handling procedures above were according to standard operating procedures approved by the institutional animal care and use committee at Northeast Forestry University.

Bad = assay: Western blot analysis in Hela cells; assay type: cell-based; conditions: 50 μmol/L, 24 h, vs control cells
Procedure: (§3) Expression of the proteins including cleaved-cas9, Bad and Bcl-xL in Hela cells treated with BA or SBE were determined by western blot analysis. Briefly, HeLa cells (1.7 × 10^5) were seeded in a 6-well microplate and allowed to attach overnight (about 24 h). The cells were then treated with BA or SBE at a concentration of 50 μmol/L for another 24 h. After that, cells were collected and lysed in PIRA buffer (Beyotime Biotech, Beijing, China) with PhosSTOP phosphatase inhibitor cocktail tablets (Roche Diagnostics, Mannheim, Baden-Württemberg, Germany). Bradford method was used to quantify the protein concentration. The samples were denatured at 100 °C for 5 min using a block heater. Then 30 μg of the denatured samples were separated by SDS-PAGE and allowed to transfer to a PVDF membrane. After the blots were blocked and washed, they were incubated overnight at 4 °C with specific primary antibodies against cleaved-cas9, Bad, Bcl-xL and β-actin. The blotting membrane was then washed three times using TBS-tween (Tris buffer saline with 1% Tween-20, pH 7.5), and incubated with IgG secondary antibodies for another 1 h at room temperature (or incubated overnight at 4 °C), followed by the same washing procedures above. After that, the immunoreactive proteins were developed with the ECL system. Imagelab software was used to quantify proteins and β-actin was used as a loading control. The changed fold was represented by the protein expression ratio [(target protein/the β-actin)/(the control group/the β-actin)].

Bcl-xL = assay: Western blot analysis in Hela cells; assay type: cell-based; conditions: 50 μmol/L, 24 h
Procedure: as §3

[6] = Equilibrium solubility in different solvents (saturation shake-flask, HPLC); assay type: physicochemical; conditions: 20 °C, thermodynamic from solid
Procedure: as §1

[7] = test system: 2774 (ovarian cancer cell line); assay: In vitro cytotoxic activity, MTT assay; assay type: cell-based; conditions: 2774, MTT, 72 h
Procedure: (§4) The in vitro cytotoxic activities of SBE were evaluated on six different tumor cell lines including MPC2 (pancreatic cancer cell line), HT29 (colon cancer cell line), DU145 (prostate cancer cell line), NCI-H520 (lung cancer cell line), Hela (cervical cancer cell line) and 2774 (ovarian cancer cell line) using MTT assay. Cells were cultured in RPMI DMEM medium (containing 100 IU/mL G-penicillin, 100 µg/mL streptomycin and supplemented with 10% fetal calf serum) at 37 °C with 5% of CO2 in a CO2 incubator. In the MTT experiments, the cells were initially seeded in a 96-well plate with 0.1–0.2 mL (about 15 × 10^3 cells) of culture medium per well and allowed to attach overnight (about 24 h). Once attached, the cell confluence in each well reached approximately 50–60% when the drugs were added. Then the medium was replaced with fresh medium containing SBE or BA at different concentrations in four replicates. After incubating in the CO2 incubator for 3 days (about 72 h), 30 µL of MTT solution (3 mg/mL in culture medium) was added to each well and incubated for an additional 4 h. The medium was then aspirated and 150 µL of DMSO was added to each well to dissolve the formazan crystals thoroughly. The absorbance (OD value) was quantitated at 490 nm using a microplate reader (ELX800, Biotek, America). The relative growth inhibition rate (%) was calculated as (1 − mean absorbance of the sample/mean absorbance of the control) × 100%, considering the optical density of the control as 100%.

[8] = test system: DU145 (prostate cancer cell line); assay: In vitro cytotoxic activity, MTT assay; assay type: cell-based; conditions: Homo sapiens, DU-145, 72 h
Procedure: as §4

[9] = test system: HT29 (colon cancer cell line); assay: In vitro cytotoxic activity, MTT assay; assay type: cell-based; conditions: Homo sapiens, HT-29, 72 h
Procedure: as §4

[10] = test system: Hela (cervical cancer cell line); assay: In vitro cytotoxic activity, MTT assay; assay type: cell-based; conditions: Homo sapiens, 72 h
Procedure: as §4

[11] = test system: MPC2 (pancreatic cancer cell line); assay: In vitro cytotoxic activity, MTT assay; assay type: cell-based; conditions: 72 h
Procedure: as §4

[12] = test system: NCI-H520 (lung cancer cell line); assay: In vitro cytotoxic activity, MTT assay; assay type: cell-based; conditions: Homo sapiens, 72 h
Procedure: as §4

Bad/Bcl-xL ratio = assay: Western blot analysis in Hela cells; assay type: cell-based; conditions: 50 μmol/L, 24 h
Procedure: as §3

cleaved-cas9 (caspase 9) = assay: Western blot analysis in Hela cells; assay type: cell-based; conditions: 50 μmol/L, 24 h
Procedure: as §3

In the case of `C=C(C)[C@@H]1CC[C@]2(CO)CC[C@]3(C)[C@H](CC[C@@H]4[C@@]5(C)CC[C@H](O)C(C)(C)[C@@H]5CC[C@]43C)[C@@H]12` [BE, lup-20(29)-en-3β, 28-diol], the “AUC0−∞ of BE relative to that of SBE” value [1] is given as “about 5%” and the “AUC0−∞” value [2] is given as 1408.3 ± 183.7 ng·h/mL.
`C=C(C)[C@@H]1CC[C@]2(COC(=O)CCC(=O)O)CC[C@]3(C)C(CCC4[C@@]5(C)CC[C@H](O)C(C)(C)C5CC[C@]43C)C12` (some centres unmarked) [SBE, 28-O-succinyl betulin] showed a solubility thermodynamic at 48 h ([3]; phosphate buffer pH 5) of 2.79 µg/mL (≈ 5.14 µM), a solubility thermodynamic at 48 h ([3]; phosphate buffer pH 6) of 2.66 µg/mL (≈ 4.9 µM) and a solubility thermodynamic at 48 h ([3]; phosphate buffer pH 6.5) of 2.46 µg/mL (≈ 4.53 µM). The solubility thermodynamic at 48 h ([3]; phosphate buffer pH 7) was 10.9 µg/mL (≈ 20.1 µM), the solubility thermodynamic at 48 h ([3]; phosphate buffer pH 7.4) was 29.8 µg/mL (≈ 54.9 µM) and the solubility thermodynamic at 48 h ([3]; phosphate buffer pH 8) was 15.3 µg/mL (≈ 28.2 µM). The “Apparent Oil/Water Partition Coefficient (P)” value ([4]; n-octanol/phosphate buffer pH 5) was 9.68 ± 0.13, the “Apparent Oil/Water Partition Coefficient (P)” value ([4]; n-octanol/phosphate buffer pH 6) was 9.57 ± 0.30 and the “Apparent Oil/Water Partition Coefficient (P)” value ([4]; n-octanol/phosphate buffer pH 6.5) was 9.75 ± 0.21. For the same compound, the “Apparent Oil/Water Partition Coefficient (P)” value ([4]; n-octanol/phosphate buffer pH 7) was 8.63 ± 0.19, the “Apparent Oil/Water Partition Coefficient (P)” value ([4]; n-octanol/phosphate buffer pH 7.4) was 8.14 ± 0.27 and the “Apparent Oil/Water Partition Coefficient (P)” value ([4]; n-octanol/phosphate buffer pH 8) was 9.53 ± 0.23. For the same compound, the logP ([4]; pH 5, n-octanol/PBS, over pH 5–8, read-out: LogP values (all)) was 0.91 to 0.99, the logP ([4]; pH 5, n-octanol/phosphate buffer pH 5, read-out: LogP) was 0.99 ± 0.01 and the logP ([4]; pH 6, n-octanol/phosphate buffer pH 6, read-out: LogP) was 0.98 ± 0.01. It also gave a logP ([4]; pH 6.5, n-octanol/phosphate buffer pH 6.5, read-out: LogP) of 0.99 ± 0.01, a logP ([4]; pH 7, n-octanol/phosphate buffer pH 7, read-out: LogP) of 0.94 ± 0.01 and a logP ([4]; pH 7.4, n-octanol/phosphate buffer pH 7.4, read-out: LogP) of 0.91 ± 0.01. For the same compound, the logP ([4]; pH 8, n-octanol/phosphate buffer pH 8, read-out: LogP) was 0.98 ± 0.01, the “tumor growth inhibition rate (IR)” value [5] was “about 88.69%” and the “effect on the body weight of the mice” value [5] was “no obvious effect”. The mean tumor volume [5] was 398.17 ± 384.06 mm^3, the “tumor weight reduced by” value [5] was “about 85.31%” and the mean tumor weight [5] was 0.42 ± 0.40 g. The “expression level of Bad” value (Bad) was “significantly higher” and the Bcl-xL levels (Bcl-xL) was “no significant difference”.
`C=C(C)[C@@H]1CC[C@]2(C(=O)O)CC[C@]3(C)[C@H](CC[C@@H]4[C@@]5(C)CC[C@H](O)C(C)(C)[C@@H]5CC[C@]43C)[C@@H]12` [BA, 3β-hydroxy-lup-20(29)-en-28-oic acid, reference compound] showed a solubility thermodynamic at 48 h ([6]; acetonitrile, organic solvent or mixture) of 250 ± 20 µg/mL (≈ 547 µM), a solubility thermodynamic at 48 h ([6]; ethanol, organic solvent or mixture) of 4130 ± 20 µg/mL (≈ 9040 µM) and a solubility thermodynamic at 48 h ([6]; ethyl acetate, organic solvent or mixture) of 4470 ± 240 µg/mL (≈ 9790 µM). For the same compound, the solubility thermodynamic at 48 h ([6]; methanol, organic solvent or mixture) was 1920 ± 440 µg/mL (≈ 4200 µM), the solubility thermodynamic at 48 h ([6]; n-butanol, organic solvent or mixture) was 4140 ± 100 µg/mL (≈ 9060 µM) and the solubility thermodynamic at 48 h ([6]; n-octanol, organic solvent or mixture) was 6230 ± 680 µg/mL (≈ 13600 µM). For the same compound, the solubility thermodynamic at 48 h ([6]; petroleum ether, organic solvent or mixture) was 27 ± 10 µg/mL (≈ 59.1 µM), the solubility thermodynamic at 48 h ([6]; water) was 36 ± 10 µg/mL (≈ 78.8 µM) and the IC50 [7] was 39.5 ± 2.19 µM. The IC50 [8] was 23.3 ± 2.2 µM, the IC50 [9] was 32.7 ± 0.62 µM and the IC50 [10] was 25.9 ± 1.87 µM. For the same compound, the IC50 [11] was 38.6 ± 2.91 µM, the IC50 [12] was 19.6 ± 2.44 µM and the “tumor growth inhibition rate (IR)” value [5] was ~61.93%. For the same compound, the “effect on the body weight of the mice” value [5] was “no obvious effect”, the mean tumor volume [5] was 1340.91 ± 1186.99 mm^3 and the “tumor weight reduced by” value [5] was ~68.89%. The mean tumor weight [5] was 0.89 ± 0.53 g, the “ratio of Bad/Bcl-xL” value (Bad/Bcl-xL ratio) was “notably up-regulated” and the Bcl-xL levels (Bcl-xL) was “no significant difference”. For the same compound, the “cleavage products of caspase 9” value (cleaved-cas9 (caspase 9)) was “clearly increased”.
